“And” between values parts separate entries of the source, which are not always exact repeats. Equal values may be shown once. Read-outs that look alike come from different tables or passages of the source.
Assays:
[1] = target: T1, human GIPR (Homo sapiens, UniProt P48546); assay: In vitro receptor activation reporter assay (CRE-Luc), HEK293-GIPR-CRE; format: cell-based
T1 construct: expressed in transfected cells
T1 sequence (P48546 22-466): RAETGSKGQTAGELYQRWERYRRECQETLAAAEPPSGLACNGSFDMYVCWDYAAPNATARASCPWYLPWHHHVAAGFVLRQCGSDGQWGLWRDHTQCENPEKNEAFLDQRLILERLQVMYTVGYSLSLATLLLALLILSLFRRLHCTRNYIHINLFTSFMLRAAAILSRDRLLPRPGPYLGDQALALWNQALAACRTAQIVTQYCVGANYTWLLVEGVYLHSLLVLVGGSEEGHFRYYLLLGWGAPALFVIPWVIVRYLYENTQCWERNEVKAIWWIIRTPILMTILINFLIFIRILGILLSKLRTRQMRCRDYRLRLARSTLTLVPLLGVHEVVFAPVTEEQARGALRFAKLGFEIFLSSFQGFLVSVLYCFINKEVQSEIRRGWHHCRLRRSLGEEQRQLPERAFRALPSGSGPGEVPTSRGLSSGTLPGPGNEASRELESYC
Text: HEK293 cells were infected with lentivirus encoding firefly luciferase gene under the control of cAMP responsive element (CRE) promoter (Qiagen, The Netherlands) and then were selected using 1 g mL^−1 puromycin (Life Technologies, Carlsbad) for 1 week. The surviving cells (referred to as CRE-HEK293) were expanded and then transfected with a G418 selective mammalian expression plasmid encoding human GLP-1R or GIPR. In brief, GLP-1R or GIPR plasmid was transfected into CRE-HEK293 cells using Lipofectamine 2000 and selected with 400 g mL^−1 Geneticin (Life Technologies, Carlsbad, CA). Single colony stable cell line overexpressing CRE-luciferase and GLP-1R or GIPR (HEK293-GLP-1R-CRE or HEK293-GIPR-CRE) was then established for in vitro activity assay.
(§1) The EC50 of each peptide was determined using GraphPad Prism 6 software (GraphPad, San Diego, CA).

[2] = target: T2, human GLP-1R (Homo sapiens, UniProt P43220); assay: In vitro receptor activation reporter assay (CRE-Luc), HEK293-GLP-1R-CRE; format: cell-based
T2 construct: expressed in transfected cells
Experimental: as §1
HEK293 cells were infected with lentivirus encoding firefly luciferase gene under the control of cAMP responsive element (CRE) promoter (Qiagen, The Netherlands) and then were selected using 1 g/mL puromycin (Life Technologies, Carlsbad) for 1 week. The surviving cells (referred to as CRE-HEK293) were expanded and then transfected with a G418 selective mammalian expression plasmid encoding human GLP-1R. In brief, GLP-1R plasmid was transfected into CRE-HEK293 cells using Lipofectamine 2000 and selected with 400 g/mL Geneticin (Life Technologies, Carlsbad, CA). Single colony stable cell line overexpressing CRE-luciferase and GLP1R was then established for in vitro activity assay.

[3] = dog, in vivo, po
[4] = Pharmacokinetics in CD-1 mouse, plasma concentration by LC-MS; format: in vivo; conditions: individual animals
Experimental: The peptide plasma concentration at various time points was determined using LC-MS.

[5] = unnumbered table (Table 10), average of runs, read-out: GIPR (nM) [EC50] average
[6] = unnumbered table (Table 10), run 02/19, read-out: GIPR (nM) [EC50] 02/19
[7] = unnumbered table (Table 10), run 03/25, read-out: GIPR (nM) [EC50] 03/25
[8] = unnumbered table (Table 10), run 03/26, read-out: GIPR (nM) [EC50] 03/26
[9] = Table 9, read-out: EC50 [nM] GIPR
[10] = Table 9, read-out: EC50 [nM] GLP1R

T2 sequence (P43220 24-463): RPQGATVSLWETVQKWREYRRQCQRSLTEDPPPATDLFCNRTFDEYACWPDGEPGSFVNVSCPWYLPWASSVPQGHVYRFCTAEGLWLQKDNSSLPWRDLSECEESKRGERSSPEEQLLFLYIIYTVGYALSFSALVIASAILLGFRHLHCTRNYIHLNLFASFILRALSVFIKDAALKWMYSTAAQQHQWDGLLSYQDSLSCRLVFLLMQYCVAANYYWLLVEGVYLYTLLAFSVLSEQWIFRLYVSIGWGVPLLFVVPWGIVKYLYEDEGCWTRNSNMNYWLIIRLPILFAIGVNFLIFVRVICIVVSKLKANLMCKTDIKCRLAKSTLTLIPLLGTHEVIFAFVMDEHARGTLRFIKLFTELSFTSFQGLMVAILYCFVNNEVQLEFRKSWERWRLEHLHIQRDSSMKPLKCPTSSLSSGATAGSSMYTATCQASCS

CC[C@H](C)[C@H](NC(=O)[C@H](CO)NC(=O)[C@H](Cc1ccc(O)cc1)NC(=O)[C@H](CC(=O)O)NC(=O)[C@H](CO)NC(=O)[C@@H](NC(=O)[C@H](Cc1ccccc1)NC(=O)[C@@H](NC(=O)CNC(=O)[C@H](CCC(=O)O)NC(=O)C(C)(C)NC(=O)[C@@H](N)Cc1ccc(O)cc1)[C@@H](C)O)[C@@H](C)O)C(=O)N[C@@H](Cc1ccc(O)cc1)C(=O)N[C@H]1CSCC(=O)NCCN(C(=O)CCC(=O)NCCOCCOCCC(=O)NCCOCCOCCC(=O)NCCCC[C@H](NC(=O)CCCCCCCCCCCCCCCCCCC(=O)O)C(=O)O)CCNC(=O)CSC[C@@H](C(=O)N[C@@H](Cc2ccccc2)C(=O)N[C@H](C(=O)N[C@@H](CC(N)=O)C(=O)N[C@@H](Cc2c[nH]c3ccccc23)C(=O)N[C@@H](CC(C)C)C(=O)N[C@@H](CC(C)C)C(=O)N[C@@H](C)C(=O)NCC(=O)NCC(=O)N2CCC[C@H]2C(=O)N[C@@H](CO)C(=O)N[C@@H](CO)C(=O)NCC(=O)N[C@@H](C)C(=O)N2CCC[C@H]2C(=O)N2CCC[C@H]2C(=O)N2CCC[C@H]2C(=O)N[C@@H](CO)C(N)=O)C(C)C)NC(=O)C(C)(C)NC(=O)[C@H](C)NC(=O)[C@H](C)NC(=O)[C@H](CCC(N)=O)NC(=O)[C@H](CCCCN)NC(=O)[C@H](CC(=O)O)NC1=O [C(14-21) - C20L5A, YAibEGT-FTSDY-SIYXD-KQAAAib-XFVNW-LLAGG-PSSGA-PPPS-NH2 (where each X is C)]
EC50 ([1]; Table 8, read-out: EC50 [nM] GIPR): 0.05 nM | EC50 [1, 5]: 0.05 nM | EC50 [1, 6]: 0.07 nM | EC50 [1, 7]: 0.04 nM | EC50 [1, 8]: 0.04 nM | EC50 ([2]; Table 8, read-out: EC50 [nM] GLP1R): 0.2 nM

CC[C@H](C)[C@H](NC(=O)[C@H](CO)NC(=O)[C@H](Cc1ccc(O)cc1)NC(=O)[C@H](CC(=O)O)NC(=O)[C@H](CO)NC(=O)[C@@H](NC(=O)[C@H](Cc1ccccc1)NC(=O)[C@@H](NC(=O)CNC(=O)[C@H](CCC(=O)O)NC(=O)C(C)(C)NC(=O)[C@@H](N)Cc1ccc(O)cc1)[C@@H](C)O)[C@@H](C)O)C(=O)N[C@@H](Cc1ccc(O)cc1)C(=O)N[C@@H](CC(C)C)C(=O)N[C@@H](CC(=O)O)C(=O)N[C@@H](CCCCN)C(=O)N[C@H]1CSCC(=O)NCCN(C(=O)CCC(=O)NCCOCCOCCC(=O)NCCOCCOCCC(=O)NCCCC[C@H](NC(=O)CCCCCCCCCCCCCCCCCCC(=O)O)C(=O)O)CCNC(=O)CSC[C@@H](C(=O)N[C@@H](Cc2c[nH]c3ccccc23)C(=O)N[C@@H](CC(C)C)C(=O)N[C@@H](CC(C)C)C(=O)N[C@@H](C)C(=O)NCC(=O)NCC(=O)N2CCC[C@H]2C(=O)N[C@@H](CO)C(=O)N[C@@H](CO)C(=O)NCC(=O)N[C@@H](C)C(=O)N2CCC[C@H]2C(=O)N2CCC[C@H]2C(=O)N2CCC[C@H]2C(=O)N[C@@H](CO)C(N)=O)NC(=O)[C@H](C(C)C)NC(=O)[C@H](Cc2ccccc2)NC(=O)[C@H](CCC(=O)O)NC(=O)C(C)(C)NC(=O)[C@H](C)NC(=O)[C@H](C)NC1=O [C(17-24) - C20L5A, YAibEGT-FTSDY-SIYLD-KXAAAib-EFVXW-LLAGG-PSSGA-PPPS-NH2 (where each X is C)]
EC50 [1, 9]: 0.05 nM | EC50 [1, 5]: 0.03 nM | EC50 [1, 6]: 0.04 nM | EC50 [1, 7]: 0.02 nM | EC50 [1, 8]: 0.03 nM | EC50 [2, 10]: 0.11 nM | EC50 ([2]; unnumbered table (Table 10), average of runs, read-out: GLP1R (nM) [EC50] average): 0.09 nM | EC50 ([2]; unnumbered table (Table 10), run 02/19, read-out: GLP1R (nM) [EC50] 02/19): 0.07 nM | EC50 ([2]; unnumbered table (Table 10), run 3/25, read-out: GLP1R (nM) [EC50] 3/25): 0.1 nM | EC50 ([2]; unnumbered table (Table 10), run 03/26, read-out: GLP1R (nM) [EC50] 03/26): 0.09 nM

CC[C@H](C)[C@H](NC(=O)[C@H](CO)NC(=O)[C@H](Cc1ccc(O)cc1)NC(=O)[C@H](CC(=O)O)NC(=O)[C@H](CO)NC(=O)[C@@H](NC(=O)[C@H](Cc1ccccc1)NC(=O)[C@@H](NC(=O)CNC(=O)[C@H](CCC(=O)O)NC(=O)C(C)(C)NC(=O)[C@@H](N)Cc1ccc(O)cc1)[C@@H](C)O)[C@@H](C)O)C(=O)N[C@@H](Cc1ccc(O)cc1)C(=O)N[C@@H](CC(C)C)C(=O)N[C@@H](CC(=O)O)C(=O)N[C@@H](CCCCN)C(=O)N[C@H]1CSCC(=O)NCCN(C(=O)CCC(=O)NCCOCCOCCC(=O)NCCOCCOCCC(=O)NCCCC[C@H](NC(=O)CCCCCCCCCCCCCCCCC(=O)O)C(=O)O)CCNC(=O)CSC[C@@H](C(=O)N[C@@H](Cc2c[nH]c3ccccc23)C(=O)N[C@@H](CC(C)C)C(=O)N[C@@H](CC(C)C)C(=O)N[C@@H](C)C(=O)NCC(=O)NCC(=O)N2CCC[C@H]2C(=O)N[C@@H](CO)C(=O)N[C@@H](CO)C(=O)NCC(=O)N[C@@H](C)C(=O)N2CCC[C@H]2C(=O)N2CCC[C@H]2C(=O)N2CCC[C@H]2C(=O)N[C@@H](CO)C(N)=O)NC(=O)[C@H](C(C)C)NC(=O)[C@H](Cc2ccccc2)NC(=O)[C@H](CCC(=O)O)NC(=O)C(C)(C)NC(=O)[C@H](C)NC(=O)[C@H](C)NC1=O [C(17-24) - L5A, YAibEGT-FTSDY-SIYLD-KXAAAib-EFVXW-LLAGG-PSSGA-PPPS-NH2 (where each X is C)]
EC50 [1, 9]: 0.05 nM | EC50 [2, 10]: 0.11 nM

CC[C@H](C)[C@H](NC(=O)[C@H](CC(C)C)NC(=O)[C@H](Cc1c[nH]c2ccccc12)NC(=O)[C@@H]1CSCC(=O)NCCN(C(=O)CCC(=O)NCCOCCOCCC(=O)NCCOCCOCCC(=O)NCCCC[C@H](NC(=O)CCCCCCCCCCCCCCCCCCC(=O)O)C(=O)O)CCNC(=O)CSC[C@H](NC(=O)[C@H](CCCCN)NC(=O)[C@H](CC(=O)O)NC(=O)[C@H](CC(C)C)NC(=O)[C@H](Cc2ccc(O)cc2)NC(=O)[C@@H](NC(=O)[C@H](CO)NC(=O)[C@H](Cc2ccc(O)cc2)NC(=O)[C@H](CC(=O)O)NC(=O)[C@H](CO)NC(=O)[C@@H](NC(=O)[C@H](Cc2ccccc2)NC(=O)[C@@H](NC(=O)CNC(=O)[C@H](CCC(=O)O)NC(=O)C(C)(C)NC(=O)[C@@H](N)Cc2ccc(O)cc2)[C@@H](C)O)[C@@H](C)O)[C@@H](C)CC)C(=O)N[C@@H](C)C(=O)N[C@@H](C)C(=O)NC(C)(C)C(=O)N[C@@H](CCC(=O)O)C(=O)N[C@@H](Cc2ccccc2)C(=O)N[C@@H](C(C)C)C(=O)N1)C(=O)N[C@@H](C)C(=O)NCC(=O)NCC(=O)N1CCC[C@H]1C(=O)N[C@@H](CO)C(=O)N[C@@H](CO)C(=O)NCC(=O)N[C@@H](C)C(=O)N1CCC[C@H]1C(=O)N1CCC[C@H]1C(=O)N1CCC[C@H]1C(=O)N[C@@H](CO)C(N)=O [mCMV268, YAibEGT-FTSDY-SIYLD-KXAAAib-EFVXW-LIAGG-PSSGA-PPPS-NH2 (where each X is C)]
Bioavailability [3]: 0.27%, 0.27%,

CC[C@H](C)[C@H](NC(=O)[C@H](CC(C)C)NC(=O)[C@H](Cc1c[nH]c2ccccc12)NC(=O)[C@H](CC(N)=O)NC(=O)[C@@H](NC(=O)[C@H](Cc1ccccc1)NC(=O)[C@@H]1CSCC(=O)NCCN(C(=O)CCC(=O)NCCOCCOCCC(=O)NCCOCCOCCC(=O)NCCCC[C@H](NC(=O)CCCCCCCCCCCCCCCCC(=O)O)C(=O)O)CCNC(=O)CSC[C@H](NC(=O)[C@H](Cc2ccc(O)cc2)NC(=O)[C@@H](NC(=O)[C@H](CO)NC(=O)[C@H](Cc2ccc(O)cc2)NC(=O)[C@H](CC(=O)O)NC(=O)[C@H](CO)NC(=O)[C@@H](NC(=O)[C@H](Cc2ccccc2)NC(=O)[C@@H](NC(=O)CNC(=O)[C@H](CCC(=O)O)NC(=O)C(C)(C)NC(=O)[C@@H](N)Cc2ccc(O)cc2)[C@@H](C)O)[C@@H](C)O)[C@@H](C)CC)C(=O)N[C@@H](CC(=O)O)C(=O)N[C@@H](CCCCN)C(=O)N[C@@H](CCC(N)=O)C(=O)N[C@@H](C)C(=O)N[C@@H](C)C(=O)NC(C)(C)C(=O)N1)C(C)C)C(=O)N[C@@H](C)C(=O)NCC(=O)NCC(=O)N1CCC[C@H]1C(=O)N[C@@H](CO)C(=O)N[C@@H](CO)C(=O)NCC(=O)N[C@@H](C)C(=O)N1CCC[C@H]1C(=O)N1CCC[C@H]1C(=O)N1CCC[C@H]1C(=O)N[C@@H](CO)C(N)=O [mCMZ370, YAibEGT-FTSDY-SIYXD-KQAAAib-XFVNW-LIAGG-PSSGA-PPPS-NH2 (where each X is C)]
Tlast ([4]; 1 mg/kg I.V.): 72 h | AUC—%Extrap—pred ([4]; 1 mg/kg I.V., 1 mg/kg): 0.39% and 0.38% and 0.6% | Cl—pred ([4]; 1 mg/kg I.V., 1 mg/kg): 0.162 mL/min/kg | Vz—pred ([4]; 1 mg/kg I.V., 1 mg/kg): 0.099 L/kg | Tlast ([4]; 1 mg/kg S.C.): 72 h | AUC—%Extrap—pred ([4]; 1 mg/kg S.C., 1 mg/kg): 0.26% and 0.31% and 0.19% | AUMC—%Extrap—pred ([4]; 1 mg/kg S.C., 1 mg/kg): 0.99% | Cl—Fpred ([4]; 1 mg/kg S.C., 1 mg/kg): 0.24 mL/min/kg and 0.21 mL/min/kg and 0.06 mL/min/kg | V—F—pred ([4]; 1 mg/kg S.C., 1 mg/kg): 0.2 L/kg and 0.15 L/kg and 0.13 L/kg | clearance ([4]; mouse, in vivo, iv, 1 mg/kg, 1 mg/kg I.V., read-out: Cl—pred): 0.112 mL/min/kg

Reference: patent US20250320252A1 (The Scripps Research Institute, priority 2021, published 2025)
